Source: patent US10189870B2, “Crystalline form of oxazolidinone antibiotics and preparation method, composition and use thereof” (Hangzhou Pushai Pharmaceutical Technology Co., Ltd., priority 2014, dated 2019)
≈ marks a conversion by molar mass, not a printed value. Where two headings read alike, the source gives them in different places.

Columns and labels:
[1] = Storage stability at 25° C. and 60% RH; format: physicochemical; settings: stored for 6 months at 25° C. and 60% RH
[2] = Stability test under high temperature and bright light, HPLC purity; format: physicochemical; settings: for Change in value of maximum individual impurity content: increase
Method: High Performance Liquid Chromatogram (HPLC) analysis data are collected from Agilent 1260 and the chemical workstation is B.04. The corresponding parameters are as follows: chromatographic column […] XDB-C18, 5 μm, 4.6×250 mm, H-005#, column temperature 25° C., flow rate 0.3 ml/min, mobile phase 13% acetonitrile and 87% water (0.0025M ammonium bicarbonate), wavelength 254 nm, sample size 10 μL and operation duration 20 min. Form I of TR-701FA prepared in preparation example 1 and Form II of TR-701FA of the present invention were compared in the stability test by being stored for 10 days under conditions of high temperature and bright light. The high temperature was 80° C. and the light was 6,000 lx. HPLC purities and maximum individual impurity contents of the compounds were tested before and after the storage, and the results were shown in Table 3.

[3] = Isothermal adsorption curve (hygroscopicity); format: physicochemical; settings: for hygroscopicity (in words): isothermal adsorption curve
Method: The Isothermal Adsorption Curve data are collected by TA Instruments Q5000 TGA. The instrument control software is Thermal Advantage and the analysis software is Universal Analysis. Generally, take 1 to 10 mg of the sample and place it in a platinum pan, and record weight changes of the sample during the course of the relative humidity changing from 0% to 80% then to 0%. Depending on samples, different adsorption and desorption steps may be used.

[4] = Solubility in water, filtrate content measured by HPLC; format: physicochemical; settings: for solubility at 10 h: water, 25 °C, thermodynamic from solid
Method: High Performance Liquid Chromatogram (HPLC) analysis data are collected from Agilent 1260 and the chemical workstation is B.04. The corresponding parameters are as follows: chromatographic column Eclipst XDB-C18, 5 μm, 4.6×250 mm, H-005#, column temperature 25° C., flow rate 0.3 ml/min, mobile phase 13% acetonitrile and 87% water (0.0025M ammonium bicarbonate), wavelength 254 nm, sample size 10 μL and operation duration 20 min.
In 100 mL of water was added 20.0 mg of Form I prepared in preparation example 1 or 20 mg of Form II prepared in example 1, and stirred for 10 hours at 25° C., filtered, the content of the filtrate was directly measured by HPLC.

[5] = aqueous solution or acid solution; cited from earlier work
[6] = cited from earlier work
[7] = 0 day vs 10 days at 80° C. and 6,000 lx
[8] = high temperature (80° C.) and lighting (6,000 lx) for 10 days

SMILES | purity and crystalline form after storage [1] | HPLC purity ([2]; 0 day) [%] | Maximum individual impurity content ([2]; 0 day) [%] | Change in value of maximum individual impurity content [2, 7] [%] | HPLC purity [2, 8] [%] | Maximum individual impurity content [2, 8] [%] | hygroscopicity (in words) [3] | solubility at 10 h ([4]; at room temperature, read-out: water solubility) [µg/mL] | stability in solution (in words) [5] | solubility relative to tedizolid (in words) [6] | Change in value of HPLC purity ([2]; 0 day vs 10 days at 80° C. and 6,000 lx, positive = decrease) [%] | weight change on isothermal adsorption curve ([3]; relative humidity range of 20% to 80% RH) | solubility in water (in words) [4] | solubility at 10 h ([4]; stirred 10 hours at 25° C. (room temperature), filtrate by HPLC, read-out: solubility in water) [µg/mL]
Cn1nnc(-c2ccc(-c3ccc(N4C[C@H](COP(=O)(O)O)OC4=O)cc3F)cn2)n1 [Form II of TR-701FA, (R)-3-(4-(2-(2-methyltetrazol-5-yl)pyridine-5-yl)-3-fluorophenyl)-5-hydroxymethyl oxazolidin-2-onedihydrogenphosphate] | remain unchanged | 98.3 | 1.6 | 0.1 | 98.4 | 1.7 | lower hygroscopicity than the known Form I | 168 (≈ 373 µM) | – | – | – | – | – | –
Cn1nnc(-c2ccc(-c3ccc(N4C[C@H](COP(=O)(O)O)OC4=O)cc3F)cn2)n1 [TR-701FA, (R)-3-(4-(2-(2-methyltetrazol-5-yl)pyridine-5-yl)-3-fluorophenyl)-5-hydroxymethyl oxazolidin-2-onedihydrogenphosphate] | – | – | – | – | – | – | – | – | stable in aqueous solution or acid solution | better solubility than tedizolid | – | – | – | –
Cn1nnc(-c2ccc(-c3ccc(N4C[C@H](COP(=O)(O)O)OC4=O)cc3F)cn2)n1 [Form I of TR-701FA, (R)-3-(4-(2-(2-methyltetrazol-5-yl)pyridine-5-yl)-3-fluorophenyl)-5-hydroxymethyl oxazolidin-2-onedihydrogenphosphate] | – | 98.7 | 1.3 | 1.2 | 96.6 | 2.5 | high hygroscopicity | – | – | – | 2.1 | approximately 1.56% | low solubility in water | 118 (≈ 262 µM)
